What was measured:
CK1α = biological target: T1, CK1α (Homo sapiens, UniProt P48729+Q96SW2); experiment: HiBiT degradation assay, CK1α, Procedure A; assay type: cell-based
T1 construct: CSNK1A1-HiBit KI HEK293(LgBit) Cells; host or cells: HEK293(LgBit) knock-in cells
Summary of the method: (§1)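 Cells in DMEM+10% FBS at 1×10^6 cells/ml were added to pre-spotted compound (10-point dose response, 10 μM to 0.005 μM, 0.1% DMSO) and incubated 6 h at 37° C. Nano-Glo HiBiT lytic reagent was added and luminescence read. DC50 and Ymin came from 4-parameter curve fits.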

GSPT1 = GSPT1 (Homo sapiens, UniProt P15170+Q96SW2); experiment: HiBiT degradation assay, GSPT1, Procedure A; assay type: cell-based; set-up: HiBit-GSPT1 KI HEK293(LgBit) Cells; host or cells: HEK293(LgBit) knock-in cells
Sequence of GSPT1 (P15170 whole entry): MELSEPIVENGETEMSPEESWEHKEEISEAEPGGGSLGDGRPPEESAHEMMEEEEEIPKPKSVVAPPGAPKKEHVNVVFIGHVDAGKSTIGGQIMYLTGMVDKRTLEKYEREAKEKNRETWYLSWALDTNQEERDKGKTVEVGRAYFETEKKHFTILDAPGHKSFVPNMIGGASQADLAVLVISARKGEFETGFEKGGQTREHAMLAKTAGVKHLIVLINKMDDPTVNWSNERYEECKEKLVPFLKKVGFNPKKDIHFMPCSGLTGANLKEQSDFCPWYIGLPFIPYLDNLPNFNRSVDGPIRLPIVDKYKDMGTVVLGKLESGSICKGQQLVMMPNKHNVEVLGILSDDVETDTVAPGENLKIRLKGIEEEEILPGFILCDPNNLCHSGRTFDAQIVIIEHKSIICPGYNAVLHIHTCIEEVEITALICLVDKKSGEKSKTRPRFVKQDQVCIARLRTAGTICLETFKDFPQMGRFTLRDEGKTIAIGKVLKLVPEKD
Sequence of GSPT1 (Q96SW2 whole entry): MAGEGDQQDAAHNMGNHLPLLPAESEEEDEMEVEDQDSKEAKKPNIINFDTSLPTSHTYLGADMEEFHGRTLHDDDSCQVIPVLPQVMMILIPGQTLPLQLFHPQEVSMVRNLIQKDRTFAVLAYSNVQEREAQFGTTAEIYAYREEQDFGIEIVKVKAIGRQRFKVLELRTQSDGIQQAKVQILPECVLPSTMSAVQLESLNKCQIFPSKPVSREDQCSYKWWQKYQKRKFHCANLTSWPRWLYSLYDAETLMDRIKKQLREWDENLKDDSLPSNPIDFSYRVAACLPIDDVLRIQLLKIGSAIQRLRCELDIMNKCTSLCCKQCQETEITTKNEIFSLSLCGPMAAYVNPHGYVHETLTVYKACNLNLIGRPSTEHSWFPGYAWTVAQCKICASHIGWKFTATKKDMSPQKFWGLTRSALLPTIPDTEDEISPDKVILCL
Sequence of GSPT1 (Q16531 whole entry partner): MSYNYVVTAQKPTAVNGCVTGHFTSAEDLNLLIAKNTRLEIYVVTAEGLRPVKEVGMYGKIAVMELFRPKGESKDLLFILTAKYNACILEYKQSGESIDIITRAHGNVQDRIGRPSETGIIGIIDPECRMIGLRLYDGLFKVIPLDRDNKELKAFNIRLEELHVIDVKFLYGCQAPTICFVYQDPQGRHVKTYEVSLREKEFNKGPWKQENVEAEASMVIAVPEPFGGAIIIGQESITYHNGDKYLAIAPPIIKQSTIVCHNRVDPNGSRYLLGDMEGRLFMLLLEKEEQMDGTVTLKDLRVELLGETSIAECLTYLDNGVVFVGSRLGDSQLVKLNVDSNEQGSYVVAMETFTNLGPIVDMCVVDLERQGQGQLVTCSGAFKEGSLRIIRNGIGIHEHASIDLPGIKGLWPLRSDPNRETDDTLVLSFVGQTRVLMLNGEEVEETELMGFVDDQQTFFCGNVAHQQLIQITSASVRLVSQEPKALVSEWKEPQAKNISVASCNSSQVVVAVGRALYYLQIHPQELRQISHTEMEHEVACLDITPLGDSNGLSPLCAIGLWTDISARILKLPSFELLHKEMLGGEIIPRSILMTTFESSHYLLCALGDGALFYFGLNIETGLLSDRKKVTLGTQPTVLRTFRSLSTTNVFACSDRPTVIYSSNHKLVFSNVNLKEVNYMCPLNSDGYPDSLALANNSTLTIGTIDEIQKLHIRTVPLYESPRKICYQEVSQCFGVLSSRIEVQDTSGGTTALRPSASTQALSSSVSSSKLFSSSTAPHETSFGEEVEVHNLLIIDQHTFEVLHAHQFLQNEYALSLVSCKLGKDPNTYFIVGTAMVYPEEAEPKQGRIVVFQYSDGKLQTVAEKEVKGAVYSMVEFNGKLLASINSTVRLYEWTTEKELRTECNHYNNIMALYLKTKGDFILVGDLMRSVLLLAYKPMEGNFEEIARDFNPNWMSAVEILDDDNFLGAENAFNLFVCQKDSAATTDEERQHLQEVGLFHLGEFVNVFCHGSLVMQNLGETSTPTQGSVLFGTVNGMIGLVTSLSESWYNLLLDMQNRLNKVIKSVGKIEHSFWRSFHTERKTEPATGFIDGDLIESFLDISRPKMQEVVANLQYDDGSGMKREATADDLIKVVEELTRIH
Summary of the method: as §1

T1 sequence (P48729 whole entry): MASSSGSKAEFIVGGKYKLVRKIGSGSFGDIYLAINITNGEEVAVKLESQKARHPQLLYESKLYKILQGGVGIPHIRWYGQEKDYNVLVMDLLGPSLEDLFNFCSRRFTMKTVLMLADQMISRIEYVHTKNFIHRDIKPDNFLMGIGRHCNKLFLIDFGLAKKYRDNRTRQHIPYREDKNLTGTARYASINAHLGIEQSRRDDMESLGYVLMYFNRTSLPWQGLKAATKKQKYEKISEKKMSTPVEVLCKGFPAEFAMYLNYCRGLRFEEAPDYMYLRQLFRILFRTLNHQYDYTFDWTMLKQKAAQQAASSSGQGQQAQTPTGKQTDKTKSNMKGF
T1 sequence (Q96SW2 whole entry): as the sequence (Q96SW2 whole entry) above
T1 sequence (Q16531 whole entry partner): as the sequence (Q16531 whole entry partner) above

SMILES	CK1α Ymin (CK1α; six hours incubation)	DC50 (CK1α; six hours incubation) [nM]	DC50 (GSPT1; six hours incubation) [nM]	GSPT1 Ymin (GSPT1; six hours incubation)	CK1α Ymin (CK1α; six hours)	DC50 (CK1α; six hours) [nM]	DC50 (GSPT1; six hours) [nM]	GSPT1 Ymin (GSPT1; six hours)
Cc1c(N)cccc1-c1nc(-c2ccc3c(c2)CN(C2CCC(=O)NC2=O)C3=O)cn1C (stereo not shown) [Example 573]	–	–	–	–	C (C = 0-10% remaining)	< 25	< 25	E (E = >25-75% remaining)
Cn1c(C2CCOCC2)nc(-c2ccc3c(c2)CN(C2CCC(=O)NC2=O)C3=O)c1-c1cncnc1 (stereo not shown) [Example 535, 3-(5-(1-methyl-5-(pyrimidin-5-yl)-2-(tetrahydro-2H-pyran-4-yl)-1H-imidazol-4-yl)-1-oxoisoindolin-2-yl)piperidine-2,6-dione]	–	–	–	–	D (D = >10- 25% remaining)	≥ 25	≥ 25	F (F = >75-100% remaining)
Cn1ncc(-c2ccc3c(c2)CN(C2CCC(=O)NC2=O)C3=O)c1-c1ccc(OC(F)F)cc1 (stereo not shown) [Example 416, 3-(5-(5-(4-(difluoromethoxy)phenyl)-1-methyl-1H-pyrazol-4-yl)-1-oxoisoindolin-2-yl)piperidine-2,6-dione]	–	–	–	–	E (E = >25-75% remaining)	< 25	≥ 25	F (F = >75-100% remaining)
Cn1ncc(-c2ccc3c(c2)CN(C2CCC(=O)NC2=O)C3=O)c1-c1ccc(F)cc1 (stereo not shown) [Example 8, 3-(5-(5-(4-fluorophenyl)-1-methyl-1H-pyrazol-4-yl)-1-oxoisoindolin-2-yl)piperidine-2,6-dione]	E (E = >25-75% remaining)	< 25	≥ 25	F (F = >75-100% remaining)	–	–	–	–
Cn1ncc(-c2ccc3c(c2)CN(C2CCC(=O)NC2=O)C3=O)c1-c1ccc2c(c1)OC(F)(F)O2 (stereo not shown) [Example 428, 3-(5-(5-(2,2-difluorobenzo[d][1,3]dioxol-5-yl)-1-methyl-1H-pyrazol-4-yl)-1-oxoisoindolin-2-yl)piperidine-2,6-dione]	–	–	–	–	C (C = 0-10% remaining)	< 25	≥ 25	F (F = >75-100% remaining)
Cn1cnc(-c2ccc3c(c2)CN(C2CCC(=O)NC2=O)C3=O)c1-c1ccn(-c2ccc(F)cc2)n1 (stereo not shown) [Example 530]	–	–	–	–	E (E = >25-75% remaining)	< 25	< 25	F (F = >75-100% remaining)
Cn1cnc(-c2ccc3c(c2)CN(C2CCC(=O)NC2=O)C3=O)c1-c1ccc(C(=O)N2CCOCC2)cc1 (stereo not shown) [Example 314]	E (E = >25-75% remaining)	≥ 25	≥ 25	F (F = >75-100% remaining)	–	–	–	–
Cn1ncc(-c2ccc3c(c2)CN(C2CCC(=O)NC2=O)C3=O)c1-c1ccc2c(c1)OC(F)(F)O2 (stereo not shown) [Example 542, 3-(5-(5-(2,2-difluorobenzo[d][1,3]dioxol-5-yl)-1-methyl-1H-pyrazol-4-yl)-1-oxoisoindolin-2-yl)piperidine-2,6-dione]	–	–	–	–	C (C = 0-10% remaining)	< 25	< 25	F (F = >75-100% remaining)
Cn1ncc(-c2ccc3c(c2)CN(C2CCC(=O)NC2=O)C3=O)c1-c1ccc2c(c1)CCO2 (stereo not shown) [Example 97]	D (D = >10- 25% remaining)	< 25	≥ 25	F (F = >75-100% remaining)	–	–	–	–
Cn1ncc(-c2ccc3c(c2)CN(C2CCC(=O)NC2=O)C3=O)c1-c1ccc(COc2ccccc2)cc1 (stereo not shown) [Example 112]	D (D = >10- 25% remaining)	< 25	≥ 25	F (F = >75-100% remaining)	–	–	–	–
Cn1ncc(-c2ccc3c(c2)CN(C2CCC(=O)NC2=O)C3=O)c1-c1ccc(Cl)s1 (stereo not shown) [Example 68]	D (D = >10- 25% remaining)	< 25	≥ 25	F (F = >75-100% remaining)	–	–	–	–
Cc1oncc1-c1c(-c2ccc3c(c2)CN(C2CCC(=O)NC2=O)C3=O)cnn1C (stereo not shown) [Example 452]	–	–	–	–	E (E = >25-75% remaining)	< 25	≥ 25	F (F = >75-100% remaining)
Cn1ncc(-c2ccc3c(c2)CN(C2CCC(=O)NC2=O)C3=O)c1C1CC1 (stereo not shown) [Example 116]	E (E = >25-75% remaining)	≥ 25	≥ 25	F (F = >75-100% remaining)	–	–	–	–
Cn1cc(-c2ccc3c(c2)CN(C2CCC(=O)NC2=O)C3=O)nc1-c1cc(F)cc(Cl)c1 (stereo not shown) [Example 586]	–	–	–	–	C (C = 0-10% remaining)	< 25	≥ 25	F (F = >75-100% remaining)
Cc1cc(-c2c(-c3ccc4c(c3)CN(C3CCC(=O)NC3=O)C4=O)cnn2C)c(C)s1 (stereo not shown) [Example 213]	E (E = >25-75% remaining)	< 25	≥ 25	F (F = >75-100% remaining)	–	–	–	–
Cn1cc(-c2ccc3c(c2)CN(C2CCC(=O)NC2=O)C3=O)nc1-c1ccoc1 (stereo not shown) [Example 559]	–	–	–	–	C (C = 0-10% remaining)	< 25	< 25	F (F = >75-100% remaining)
Cc1nc(-c2ccc3c(c2)CN(C2CCC(=O)NC2=O)C3=O)c(-c2cncnc2)n1C (stereo not shown) [Example 544, 3-(5-(1,2-dimethyl-5-(pyrimidin-5-yl)-1H-imidazol-4-yl)-1-oxoisoindolin-2-yl)piperidine-2,6-dione]	–	–	–	–	E (E = >25-75% remaining)	≥ 25	≥ 25	F (F = >75-100% remaining)
Cc1ccc(-c2c(-c3ccc4c(c3)CN(C3CCC(=O)NC3=O)C4=O)cnn2C)s1 (stereo not shown) [Example 215]	D (D = >10- 25% remaining)	< 25	≥ 25	F (F = >75-100% remaining)	–	–	–	–

Second part, the compound after the results:

CK1α Ymin (CK1α; six hours incubation)	DC50 (CK1α; six hours incubation) [nM]	DC50 (GSPT1; six hours incubation) [nM]	GSPT1 Ymin (GSPT1; six hours incubation)	CK1α Ymin (CK1α; six hours)	DC50 (CK1α; six hours) [nM]	DC50 (GSPT1; six hours) [nM]	GSPT1 Ymin (GSPT1; six hours)	SMILES
D (D = >10- 25% remaining)	< 25	≥ 25	F (F = >75-100% remaining)	–	–	–	–	COc1ccc(Cl)c(-c2c(-c3ccc4c(c3)CN(C3CCC(=O)NC3=O)C4=O)ncn2C)c1 (stereo not shown) [Example 275]
D (D = >10- 25% remaining)	< 25	< 25	E (E = >25-75% remaining)	–	–	–	–	Cn1cnc(-c2ccc3c(c2)CN(C2CCC(=O)NC2=O)C3=O)c1-c1ccc(F)cc1F (stereo not shown) [Example 176]
C (C = 0-10% remaining)	< 25	≥ 25	F (F = >75-100% remaining)	–	–	–	–	CN1CCN(C(=O)c2cccc(-c3c(-c4ccc5c(c4)CN(C4CCC(=O)NC4=O)C5=O)ncn3C)c2)CC1 (stereo not shown) [Example 357]
–	–	–	–	D (D = >10- 25% remaining)	< 25	≥ 25	F (F = >75-100% remaining)	COc1ccsc1-c1c(-c2ccc3c(c2)CN(C2CCC(=O)NC2=O)C3=O)ncn1C (stereo not shown) [Example 508]
C (C = 0-10% remaining)	< 25	< 25	F (F = >75-100% remaining)	–	–	–	–	Cn1cnc(-c2ccc3c(c2)CN(C2CCC(=O)NC2=O)C3=O)c1-c1ccc(N2CCOCC2)cc1 (stereo not shown) [Example 353]
D (D = >10- 25% remaining)	< 25	≥ 25	E (E = >25-75% remaining)	–	–	–	–	Cn1cnc(-c2ccc3c(c2)CN(C2CCC(=O)NC2=O)C3=O)c1-c1ccc(Cl)cc1F (stereo not shown) [Example 258]
E (E = >25-75% remaining)	< 25	≥ 25	F (F = >75-100% remaining)	–	–	–	–	Cn1cnc(-c2ccc3c(c2)CN(C2CCC(=O)NC2=O)C3=O)c1-c1ccc(Cl)c(Cl)c1 (stereo not shown) [Example 283]
D (D = >10- 25% remaining)	< 25	< 25	E (E = >25-75% remaining)	–	–	–	–	Cn1cnc(-c2ccc3c(c2)CN(C2CCC(=O)NC2=O)C3=O)c1-c1ccc(-c2ccccc2)cc1 (stereo not shown) [Example 294]
E (E = >25-75% remaining)	< 25	≥ 25	F (F = >75-100% remaining)	–	–	–	–	CC(C)c1cccc(-c2c(-c3ccc4c(c3)CN(C3CCC(=O)NC3=O)C4=O)ncn2C)c1 (stereo not shown) [Example 183]
–	–	–	–	D (D = >10- 25% remaining)	≥ 25	≥ 25	F (F = >75-100% remaining)	Cn1cnc(-c2ccc3c(c2)CN(C2CCC(=O)NC2=O)C3=O)c1-c1ccc(=O)n(C)c1 (stereo not shown) [Example 400]
E (E = >25-75% remaining)	< 25	≥ 25	F (F = >75-100% remaining)	–	–	–	–	COc1cccc(-c2c(-c3ccc4c(c3)CN(C3CCC(=O)NC3=O)C4=O)cnn2C)c1 (stereo not shown) [Example 69]
–	–	–	–	E (E = >25-75% remaining)	< 25	≥ 25	F (F = >75-100% remaining)	Cc1ncccc1-c1c(-c2ccc3c(c2)CN(C2CCC(=O)NC2=O)C3=O)ncn1C (stereo not shown) [Example 507]
E (E = >25-75% remaining)	< 25	< 25	F (F = >75-100% remaining)	–	–	–	–	Cn1cnc(-c2ccc3c(c2)CN(C2CCC(=O)NC2=O)C3=O)c1-c1cc(Cl)ccc1Cl (stereo not shown) [Example 285]
E (E = >25-75% remaining)	< 25	≥ 25	F (F = >75-100% remaining)	–	–	–	–	Cc1ccc(-c2c(-c3ccc4c(c3)CN(C3CCC(=O)NC3=O)C4=O)cnn2C)c(C)c1 (stereo not shown) [Example 83]
E (E = >25-75% remaining)	< 25	≥ 25	F (F = >75-100% remaining)	–	–	–	–	Cc1c(F)cccc1-c1c(-c2ccc3c(c2)CN(C2CCC(=O)NC2=O)C3=O)ncn1C (stereo not shown) [Example 169]
C (C = 0-10% remaining)	< 25	< 25	E (E = >25-75% remaining)	–	–	–	–	Cc1cccc(-c2c(-c3ccc4c(c3)CN(C3CCC(=O)NC3=O)C4=O)ncn2C)c1 (stereo not shown) [Example 162]

Reference: patent US20240158370A1, “CK1 alpha AND DUAL CK1 alpha / GSPT1 DEGRADING COMPOUNDS” (Innovo Therapeutics, Inc., priority 2022, published 2024)
